Values of other authors in patent US20130090296A1, “INJECTABLE FORMULATION OF A MACROCYCLIC LACTONE AND LEVAMISOLE” (priority 2010, published 2013).

Conditions: previously found

c1ccc([C@H]2CN3CCSC3=N2)cc1 [levamisole]
pH required for stability: less than 4
